Experimental data taken from ChEMBL document CHEMBL5696442, “Discovery of type II inhibitors of TGFβ-activated kinase 1 (TAK1) and mitogen-activated protein kinase kinase kinase kinase 2 (MAP4K2)” (J Med Chem, 2015).
The source made the active and inactive calls. No cut-off for these calls is given here.

Key:
Ephrin type-A receptor 2 = Ephrin type-A receptor 2 (Homo sapiens, UniProt P29317); assay: Inhibition of EphA2 ACT labeling site in human A-375 cells at 5 uM by KiNativ Profiling analysis relative to control; format: cell-based
[1] = target: Mitogen-activated protein kinase 4 (Homo sapiens) (UniProt P31152); assay: Inhibition of ERK4 (unknown origin) at 10 uM by Ambit Kinomescan binding assay
[2] = system: eIF-2-alpha kinase GCN2 (Homo sapiens), Q9P2K8 [S808G]; assay: Inhibition of GCN2 kinase domain S808G mutant (unknown origin) at 10 uM by Ambit Kinomescan binding assay
[3] = target: DNA-dependent protein kinase catalytic subunit (Homo sapiens) (UniProt P78527); assay: Inhibition of PRKDC ATP labeling site harbouring KGGSWIQEINVAEKNWYPR in human Huh-7 cells at 10 uM by KiNativ Profiling analysis relative to control; format: cell-based
[4] = target: Mitogen-activated protein kinase kinase kinase kinase 4 (Homo sapiens, UniProt O95819); assay: Inhibition of ZC1/HGK K1 labeling site harbouring TGQLAAIKVMDVTEDEEEEIKLEINMLK in human Huh-7 cells at 1 uM by KiNativ Profiling analysis relative to control; format: cell-based
[5] = target: Serine/threonine-protein kinase MARK1 (Homo sapiens) (UniProt Q9P0L2); assay: Inhibition of MARK1 Lys2 labeling site in human A-375 cells at 0.5 uM by KiNativ Profiling analysis relative to control; format: cell-based
[6] = target: T1, Serine/threonine-protein kinase Nek9 (Homo sapiens) (UniProt Q8TD19); assay: Inhibition of NEK9 Lys2 labeling site in human A-375 cells at 0.5 uM by KiNativ Profiling analysis relative to control; format: cell-based
T1 sequence (whole entry): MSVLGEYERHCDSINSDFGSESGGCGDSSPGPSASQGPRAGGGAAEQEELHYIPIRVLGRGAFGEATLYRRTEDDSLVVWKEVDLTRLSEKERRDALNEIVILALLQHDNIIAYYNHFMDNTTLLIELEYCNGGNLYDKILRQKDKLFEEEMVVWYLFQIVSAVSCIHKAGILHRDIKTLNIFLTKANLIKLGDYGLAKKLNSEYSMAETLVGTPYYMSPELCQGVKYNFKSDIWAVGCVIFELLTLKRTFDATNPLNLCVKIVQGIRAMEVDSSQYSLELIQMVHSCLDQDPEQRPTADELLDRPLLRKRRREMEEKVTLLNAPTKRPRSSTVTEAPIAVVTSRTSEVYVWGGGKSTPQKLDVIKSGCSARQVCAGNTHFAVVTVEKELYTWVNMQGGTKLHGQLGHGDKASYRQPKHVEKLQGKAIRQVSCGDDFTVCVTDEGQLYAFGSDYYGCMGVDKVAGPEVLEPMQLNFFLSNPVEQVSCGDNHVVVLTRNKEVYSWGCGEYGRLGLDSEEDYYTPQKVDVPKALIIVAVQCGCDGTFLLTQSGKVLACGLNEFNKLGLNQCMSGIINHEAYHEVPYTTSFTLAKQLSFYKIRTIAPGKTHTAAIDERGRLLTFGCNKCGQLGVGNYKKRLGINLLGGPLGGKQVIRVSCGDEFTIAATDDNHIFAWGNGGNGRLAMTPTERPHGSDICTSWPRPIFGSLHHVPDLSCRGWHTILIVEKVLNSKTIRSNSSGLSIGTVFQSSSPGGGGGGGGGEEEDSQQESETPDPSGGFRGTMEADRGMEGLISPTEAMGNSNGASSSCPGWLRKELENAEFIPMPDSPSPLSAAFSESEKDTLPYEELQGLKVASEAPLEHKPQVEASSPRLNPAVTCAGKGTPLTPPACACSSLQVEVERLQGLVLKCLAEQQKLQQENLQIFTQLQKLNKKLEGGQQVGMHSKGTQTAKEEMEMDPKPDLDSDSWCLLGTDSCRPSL

[7] = target: Fibroblast growth factor receptor 1 (Homo sapiens) (UniProt P11362); assay: Inhibition of FGFR1 (unknown origin) at 1 uM by Ambit Kinomescan binding assay relative to control; values are per cent of control
[8] = target: Fibroblast growth factor receptor 2 (Homo sapiens) (UniProt P21802); assay: Inhibition of FGFR2 (unknown origin) at 1 uM by Ambit Kinomescan binding assay relative to control; values are per cent of control
[9] = target: Interleukin-1 receptor-associated kinase 3 (Homo sapiens) (UniProt Q9Y616); assay: Inhibition of IRAK3 (unknown origin) at 1 uM by Ambit Kinomescan binding assay relative to control; values are per cent of control
[10] = target: Serine/threonine-protein kinase MARK1 (Homo sapiens) (UniProt Q9P0L2); assay: Inhibition of MARK1 (unknown origin) at 1 uM by Ambit Kinomescan binding assay relative to control; values are per cent of control
[11] = target: Epidermal growth factor receptor (Homo sapiens) (UniProt P00533); assay: Inhibition of EGFR ACT labeling site in human Huh-7 cell lysate at 1 uM by KiNativ Profiling analysis relative to control; format: subcellular
[12] = target: T2, Serine/threonine-protein kinase TBK1 (Homo sapiens) (UniProt Q9UHD2); assay: Inhibition of TBK1 Lys2 labeling site in human Huh-7 cell lysate at 1 uM by KiNativ Profiling analysis relative to control; format: subcellular
T2 sequence (whole entry): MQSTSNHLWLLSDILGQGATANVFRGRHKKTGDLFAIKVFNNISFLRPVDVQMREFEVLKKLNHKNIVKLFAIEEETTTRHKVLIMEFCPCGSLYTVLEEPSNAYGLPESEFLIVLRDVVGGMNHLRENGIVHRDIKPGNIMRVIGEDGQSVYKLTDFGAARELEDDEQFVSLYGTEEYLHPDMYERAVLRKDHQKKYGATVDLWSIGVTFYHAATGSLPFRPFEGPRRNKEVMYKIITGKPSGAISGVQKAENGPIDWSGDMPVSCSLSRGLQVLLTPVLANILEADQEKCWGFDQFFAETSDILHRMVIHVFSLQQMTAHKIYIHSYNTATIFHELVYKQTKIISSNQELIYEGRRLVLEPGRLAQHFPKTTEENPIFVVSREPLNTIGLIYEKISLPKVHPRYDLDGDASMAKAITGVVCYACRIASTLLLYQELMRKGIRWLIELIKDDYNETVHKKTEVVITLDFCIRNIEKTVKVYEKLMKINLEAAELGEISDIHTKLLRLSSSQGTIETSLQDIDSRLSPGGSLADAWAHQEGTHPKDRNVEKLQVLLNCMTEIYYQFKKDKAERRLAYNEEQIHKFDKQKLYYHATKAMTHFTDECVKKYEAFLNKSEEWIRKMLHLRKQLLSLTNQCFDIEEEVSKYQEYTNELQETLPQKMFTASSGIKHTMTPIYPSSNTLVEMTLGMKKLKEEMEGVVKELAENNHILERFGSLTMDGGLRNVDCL

[13] = target: Ribosomal protein S6 kinase alpha-3 (Homo sapiens) (UniProt P51812); assay: Inhibition of RSK2 domain1 ATP labeling site in human Huh-7 cell lysate at 1 uM by KiNativ Profiling analysis relative to control; format: subcellular

Sequence of Serine/threonine-protein kinase MARK1 (Homo sapiens) (Q9P0L2 whole entry, looked up): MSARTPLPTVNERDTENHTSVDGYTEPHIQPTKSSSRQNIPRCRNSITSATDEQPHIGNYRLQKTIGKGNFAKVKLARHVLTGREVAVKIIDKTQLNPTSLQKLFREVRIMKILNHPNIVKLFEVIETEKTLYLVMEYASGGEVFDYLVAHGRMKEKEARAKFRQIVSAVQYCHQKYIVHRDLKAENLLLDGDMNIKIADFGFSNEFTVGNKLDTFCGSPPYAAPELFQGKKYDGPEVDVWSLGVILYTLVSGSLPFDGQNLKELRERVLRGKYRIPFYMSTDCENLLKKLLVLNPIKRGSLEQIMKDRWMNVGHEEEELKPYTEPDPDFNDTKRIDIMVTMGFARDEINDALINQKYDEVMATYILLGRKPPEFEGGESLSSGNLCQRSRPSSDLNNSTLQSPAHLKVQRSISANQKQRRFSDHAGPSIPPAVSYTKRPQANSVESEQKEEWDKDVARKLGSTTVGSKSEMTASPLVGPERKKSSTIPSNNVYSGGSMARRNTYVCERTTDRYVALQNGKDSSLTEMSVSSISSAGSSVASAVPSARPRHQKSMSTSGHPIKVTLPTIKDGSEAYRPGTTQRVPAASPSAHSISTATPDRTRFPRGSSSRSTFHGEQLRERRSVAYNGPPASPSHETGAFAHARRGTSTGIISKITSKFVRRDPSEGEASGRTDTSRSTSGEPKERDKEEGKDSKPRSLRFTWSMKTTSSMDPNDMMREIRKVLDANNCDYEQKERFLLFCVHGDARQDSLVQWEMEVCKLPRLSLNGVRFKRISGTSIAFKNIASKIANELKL
Sequence of Fibroblast growth factor receptor 2 (Homo sapiens) (P21802 22-821 limits assumed): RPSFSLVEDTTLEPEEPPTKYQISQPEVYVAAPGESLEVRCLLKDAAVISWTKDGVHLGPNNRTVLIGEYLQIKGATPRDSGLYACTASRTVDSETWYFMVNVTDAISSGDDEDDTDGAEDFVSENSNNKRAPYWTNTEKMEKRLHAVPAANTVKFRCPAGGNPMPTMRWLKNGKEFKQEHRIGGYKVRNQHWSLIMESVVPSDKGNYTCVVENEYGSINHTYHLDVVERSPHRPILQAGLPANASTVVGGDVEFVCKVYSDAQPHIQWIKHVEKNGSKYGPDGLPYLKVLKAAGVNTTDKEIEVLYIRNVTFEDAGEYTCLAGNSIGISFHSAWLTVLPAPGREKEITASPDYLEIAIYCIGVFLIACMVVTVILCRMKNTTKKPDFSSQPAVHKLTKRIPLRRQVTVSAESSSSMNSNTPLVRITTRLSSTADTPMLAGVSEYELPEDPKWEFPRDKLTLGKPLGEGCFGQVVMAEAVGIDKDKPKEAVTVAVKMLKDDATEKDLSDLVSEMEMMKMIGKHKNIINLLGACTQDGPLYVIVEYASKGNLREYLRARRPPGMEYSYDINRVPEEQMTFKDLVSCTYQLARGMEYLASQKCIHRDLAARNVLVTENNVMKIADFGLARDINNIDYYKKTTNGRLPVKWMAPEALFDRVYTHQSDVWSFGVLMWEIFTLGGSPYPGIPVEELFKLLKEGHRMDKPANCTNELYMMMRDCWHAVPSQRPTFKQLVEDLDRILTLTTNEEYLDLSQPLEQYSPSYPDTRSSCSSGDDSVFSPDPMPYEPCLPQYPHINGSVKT
Sequence of eIF-2-alpha kinase GCN2 (Homo sapiens), Q9P2K8 [S808G] (Q9P2K8 whole entry S808G, the tested form may be a part): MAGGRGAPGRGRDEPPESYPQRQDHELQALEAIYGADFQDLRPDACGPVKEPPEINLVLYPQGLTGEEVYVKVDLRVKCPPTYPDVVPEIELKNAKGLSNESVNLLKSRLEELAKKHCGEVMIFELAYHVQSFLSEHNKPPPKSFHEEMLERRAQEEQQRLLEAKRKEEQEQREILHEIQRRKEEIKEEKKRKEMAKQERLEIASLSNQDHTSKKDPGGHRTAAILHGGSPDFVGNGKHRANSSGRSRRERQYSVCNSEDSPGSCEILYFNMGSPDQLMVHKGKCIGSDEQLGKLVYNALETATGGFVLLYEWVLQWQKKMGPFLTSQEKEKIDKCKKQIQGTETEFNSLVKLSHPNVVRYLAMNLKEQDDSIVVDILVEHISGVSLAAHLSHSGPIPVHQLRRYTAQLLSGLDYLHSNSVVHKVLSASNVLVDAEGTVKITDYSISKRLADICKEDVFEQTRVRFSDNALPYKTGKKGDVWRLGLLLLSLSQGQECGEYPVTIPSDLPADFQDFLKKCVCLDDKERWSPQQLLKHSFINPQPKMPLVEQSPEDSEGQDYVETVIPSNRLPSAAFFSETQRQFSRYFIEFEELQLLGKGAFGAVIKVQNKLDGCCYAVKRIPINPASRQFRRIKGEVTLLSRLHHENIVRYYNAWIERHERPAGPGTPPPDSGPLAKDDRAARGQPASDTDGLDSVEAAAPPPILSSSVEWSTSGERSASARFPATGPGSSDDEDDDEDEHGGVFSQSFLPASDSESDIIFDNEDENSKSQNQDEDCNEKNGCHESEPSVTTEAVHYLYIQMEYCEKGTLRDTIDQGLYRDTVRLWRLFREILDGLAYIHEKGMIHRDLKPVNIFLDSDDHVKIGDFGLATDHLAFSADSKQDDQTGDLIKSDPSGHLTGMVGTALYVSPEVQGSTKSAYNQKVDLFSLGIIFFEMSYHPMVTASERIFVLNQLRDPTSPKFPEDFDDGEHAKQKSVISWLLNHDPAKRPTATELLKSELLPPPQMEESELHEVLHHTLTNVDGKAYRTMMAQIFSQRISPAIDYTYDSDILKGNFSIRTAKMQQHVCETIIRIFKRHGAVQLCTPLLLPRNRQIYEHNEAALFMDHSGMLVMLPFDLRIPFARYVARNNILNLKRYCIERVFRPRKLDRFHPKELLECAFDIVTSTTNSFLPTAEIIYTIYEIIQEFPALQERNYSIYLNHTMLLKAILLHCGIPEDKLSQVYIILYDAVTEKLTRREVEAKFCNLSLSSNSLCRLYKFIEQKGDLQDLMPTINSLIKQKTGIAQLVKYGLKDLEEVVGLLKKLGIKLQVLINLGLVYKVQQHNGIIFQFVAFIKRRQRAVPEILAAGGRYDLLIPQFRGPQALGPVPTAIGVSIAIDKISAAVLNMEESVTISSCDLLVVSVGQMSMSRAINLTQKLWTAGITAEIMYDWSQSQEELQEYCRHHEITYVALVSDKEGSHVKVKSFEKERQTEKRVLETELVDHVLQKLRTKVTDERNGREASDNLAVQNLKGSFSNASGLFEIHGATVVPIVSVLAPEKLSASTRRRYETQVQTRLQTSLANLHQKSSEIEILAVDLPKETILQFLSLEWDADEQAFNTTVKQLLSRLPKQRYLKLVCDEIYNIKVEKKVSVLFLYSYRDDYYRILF
Sequence of Epidermal growth factor receptor (Homo sapiens) (P00533 whole entry): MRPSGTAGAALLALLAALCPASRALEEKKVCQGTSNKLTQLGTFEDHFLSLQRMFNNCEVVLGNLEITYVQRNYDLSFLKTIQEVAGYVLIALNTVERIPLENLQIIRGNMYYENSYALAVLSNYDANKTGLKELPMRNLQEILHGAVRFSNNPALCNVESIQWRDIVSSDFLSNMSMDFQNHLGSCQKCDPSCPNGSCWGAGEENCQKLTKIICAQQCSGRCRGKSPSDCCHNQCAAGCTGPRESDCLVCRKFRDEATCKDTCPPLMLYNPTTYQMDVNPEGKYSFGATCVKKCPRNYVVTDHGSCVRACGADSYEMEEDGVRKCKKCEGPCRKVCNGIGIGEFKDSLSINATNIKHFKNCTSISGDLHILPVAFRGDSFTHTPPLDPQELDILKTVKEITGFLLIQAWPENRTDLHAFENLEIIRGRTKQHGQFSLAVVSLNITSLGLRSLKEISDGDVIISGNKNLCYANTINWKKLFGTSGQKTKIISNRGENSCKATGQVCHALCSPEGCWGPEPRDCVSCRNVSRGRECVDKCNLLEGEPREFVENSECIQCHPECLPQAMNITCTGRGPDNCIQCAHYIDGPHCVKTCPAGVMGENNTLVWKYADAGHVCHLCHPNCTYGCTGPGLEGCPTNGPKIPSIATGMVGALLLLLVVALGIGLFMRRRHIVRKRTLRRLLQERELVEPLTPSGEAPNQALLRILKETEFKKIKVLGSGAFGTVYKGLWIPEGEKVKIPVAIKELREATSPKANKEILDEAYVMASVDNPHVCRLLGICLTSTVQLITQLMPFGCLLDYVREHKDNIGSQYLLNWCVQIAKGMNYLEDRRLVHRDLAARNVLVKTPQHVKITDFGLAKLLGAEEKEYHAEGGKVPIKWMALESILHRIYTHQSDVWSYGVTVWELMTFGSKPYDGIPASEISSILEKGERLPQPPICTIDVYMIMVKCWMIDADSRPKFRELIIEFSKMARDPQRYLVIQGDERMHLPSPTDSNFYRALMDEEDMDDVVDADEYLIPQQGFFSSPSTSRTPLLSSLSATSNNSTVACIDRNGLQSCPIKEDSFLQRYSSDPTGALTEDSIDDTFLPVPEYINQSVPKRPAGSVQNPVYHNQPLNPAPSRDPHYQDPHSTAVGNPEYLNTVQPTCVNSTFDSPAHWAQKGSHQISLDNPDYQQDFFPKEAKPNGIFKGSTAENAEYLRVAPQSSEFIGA
Sequence of Interleukin-1 receptor-associated kinase 3 (Homo sapiens) (Q9Y616 whole entry): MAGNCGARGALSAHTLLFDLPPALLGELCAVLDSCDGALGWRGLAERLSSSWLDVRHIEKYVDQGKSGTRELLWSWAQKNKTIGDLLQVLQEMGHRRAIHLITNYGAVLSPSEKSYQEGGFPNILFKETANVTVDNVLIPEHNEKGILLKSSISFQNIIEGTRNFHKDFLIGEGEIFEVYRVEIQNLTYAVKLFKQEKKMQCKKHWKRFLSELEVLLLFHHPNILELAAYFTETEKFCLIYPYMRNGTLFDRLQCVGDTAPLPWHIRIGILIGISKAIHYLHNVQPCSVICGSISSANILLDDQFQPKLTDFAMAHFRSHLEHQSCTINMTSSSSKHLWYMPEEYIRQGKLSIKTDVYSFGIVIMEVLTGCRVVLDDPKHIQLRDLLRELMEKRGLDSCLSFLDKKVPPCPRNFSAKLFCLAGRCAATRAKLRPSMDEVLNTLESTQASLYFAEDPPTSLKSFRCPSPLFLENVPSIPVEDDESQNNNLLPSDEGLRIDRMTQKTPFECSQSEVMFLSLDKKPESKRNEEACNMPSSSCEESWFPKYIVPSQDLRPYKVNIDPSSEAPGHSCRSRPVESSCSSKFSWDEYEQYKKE

## CCN1CCN(Cc2ccc(NC(=O)c3ccc(C)c(Oc4ccnc5[nH]ccc45)c3)cc2C(F)(F)F)CC1
Ephrin type-A receptor 2
  inhibition: 57.7%
[1]
  inhibition: inactive
[2]
  inhibition: inactive
[3]
  inhibition: 1.9%
[4]
  inhibition: 7.6%

## CCN1CCN(Cc2ccc(NC(=O)c3ccc(C)c(/C=C/c4cnc5[nH]ccc5c4OC)c3)cc2C(F)(F)F)CC1
[5]
  inhibition: 2.2%
[6]
  inhibition: 10.4%
[7]
  % of control: 2.8%
[8]
  percent of control: 5.4%
[9]
  residual activity: 76%
[10]
  residual activity: 100%

## CNc1cc(Oc2cc(C(=O)Nc3cc(N4CCN(C)CC4)cc(C(F)(F)F)c3)ccc2C)ncn1
[11]
  inhibition: -3.2%
[12]
  inhibition: -5.8%
[13]
  inhibition: -2.6%
